The source of these data is patent publication EP4678634A1, “ANDROGEN RECEPTOR MODULATORS AND USES THEREOF” (Haihe Biopharma Co., Ltd., priority 2023, dated 2024).

Bounds are passed on as bounds.

The assay concerns the target T1, Androgen receptor (AR) (Homo sapiens, UniProt P10275).
T1 construct: expressed in transfected cells; host or cells: HEK293T (AR+ARE/Luc)
T1 sequence (P10275 1-920): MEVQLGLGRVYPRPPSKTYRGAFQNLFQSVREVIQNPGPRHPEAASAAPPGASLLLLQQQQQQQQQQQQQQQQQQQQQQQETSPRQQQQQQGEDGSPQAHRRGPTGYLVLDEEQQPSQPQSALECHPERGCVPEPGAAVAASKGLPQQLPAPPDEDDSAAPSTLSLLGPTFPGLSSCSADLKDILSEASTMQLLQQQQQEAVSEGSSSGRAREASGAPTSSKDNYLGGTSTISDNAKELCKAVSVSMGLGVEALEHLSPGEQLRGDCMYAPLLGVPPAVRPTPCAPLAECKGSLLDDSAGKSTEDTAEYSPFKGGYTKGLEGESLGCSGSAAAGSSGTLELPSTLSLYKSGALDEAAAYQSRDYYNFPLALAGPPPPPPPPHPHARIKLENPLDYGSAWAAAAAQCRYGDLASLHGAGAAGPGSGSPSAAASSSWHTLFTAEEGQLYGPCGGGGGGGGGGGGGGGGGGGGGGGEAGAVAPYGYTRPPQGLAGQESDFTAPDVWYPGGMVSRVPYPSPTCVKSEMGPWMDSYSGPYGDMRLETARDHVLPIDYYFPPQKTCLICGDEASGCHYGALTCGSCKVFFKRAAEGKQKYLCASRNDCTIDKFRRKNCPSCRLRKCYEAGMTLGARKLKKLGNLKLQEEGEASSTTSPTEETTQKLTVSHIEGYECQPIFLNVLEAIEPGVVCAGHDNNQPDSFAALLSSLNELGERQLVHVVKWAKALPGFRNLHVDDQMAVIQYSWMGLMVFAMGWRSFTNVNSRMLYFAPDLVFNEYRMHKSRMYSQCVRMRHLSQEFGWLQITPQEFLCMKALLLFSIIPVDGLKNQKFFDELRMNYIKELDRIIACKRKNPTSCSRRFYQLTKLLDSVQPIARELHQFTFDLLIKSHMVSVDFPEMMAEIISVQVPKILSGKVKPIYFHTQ
In words: Androgen receptor (AR) reporter gene assay (luciferase). In kind it is cell-based. Conditions: AR+ARE/Luc HEK293T cells, stimulated with 11-KDHT, 24h incubation, Bright-Lite luminescence; read-out: HEK293 Luc IC50. On the procedure:
Androgen receptor (AR) reporter gene assay
Experimental reagents: 11-Ketodihydrotestosterone (11-KDHT) was purchased from MCE (cat.HY-135794); Enzalutamide (MDV3100) was purchased from Selleck (cat.S1250); Bright-Lite Luciferase Assay kit was purchased from Vazyme (cat.DD1204-01);
• 1. dissolve the described compounds in 100% DMSO at a final concentration of 10 mM. 100 nL each of 400X compound to be tested and 400X 11-KDHT (40 nM) were added to a 384-well assay plate with Echo, followed by 20 µL of complete medium, and centrifuged at 1000 rpm for 1 min, and oscillated for 20-30 min at room temperature. • 2. 20 µL of AR+ARE/Luc HEK293T cells (10,000 cells/well) were inoculated into the assay plate containing the compounds and 11-KDHT, and centrifuged at 1000 rpm for 1 min. The assay plate was incubated in a 37 °C CO2 incubator for 24h. • 3. 40 µL of Bright-Lite assay reagent was transferred to each well of the assay plate, centrifuged at 1000 rpm for 1 min, and shaken for 2 min at room temperature protected from light. Luminescence values (RLU) were measured using Envision. Based on the results, the IC50 values of the compounds described were calculated. Table 1 HEK293-Luc% inhibition IC50 of representative compounds
As for `Fc1cc2c(c(F)c1OCCCl)CCCC2c1ccc2[nH]ncc2c1` (centres unmarked) [HANT-103, 5-(6-(2-chloroethoxy)-5,7-difluoro-1,2,3,4-tetrahydronaphthalen-1-yl)-1H indazole], the IC50 is 500 to 1000 nM.
Turning to `CN1Cc2ccc(C3CCCc4c3cc(C#N)c(OCCCl)c4Cl)cc2C1=O` (centres unmarked) [HANT-983], the IC50 is > 2000 nM.
With `N#Cc1cc2c(c(Cl)c1OCCCl)CCCC2c1ccc2[nH]ncc2c1` (centres unmarked) [HANT-144A, 4-chloro-3-(2-chloroethoxy)-8-(1H-indazol-5-yl)-5,6,7,8-tetrahydronaphthalene-2-carbonitrile], the IC50 is > 2000 nM.
On to `N#Cc1cc2c(c(Cl)c1OCCCl)CCC[C@H]2c1cnc(N)nc1` [HANT-204B], for which the IC50 lay within 1 to 500 nM.
Turning to `N#Cc1cc2c(c(Cl)c1OCCCl)CCCC2c1ccc2n[nH]c(=O)n2c1` (centres unmarked) [HANT-978], the IC50 fell in the range of 1 to 500 nM.
On to `CN1C(=O)c2ccc(C3CCCc4c3cc(C#N)c(OCCCl)c4Cl)cc2C1=O` (centres unmarked) [HANT-982], for which the IC50 was in the range of 1 to 500 nM.
With `N#Cc1cc2c(c(Cl)c1OCCCl)CCCC2c1cnc(N)cn1` (centres unmarked) [HANT-249], the IC50 is 500 to 1000 nM.
As to `CNC(=O)Oc1ccc(C2CCCc3c2cc(C#N)c(OCCCl)c3Cl)cc1` (centres unmarked) [HANT-206, 4-(5-chloro-6-(2-chloroethoxy)-7-cyano-1,2,3,4-tetrahydronaphthalen-1-yl)phenyl methylcarbamate], the IC50 lay in the range of 1 to 500 nM.
Turning to `ClCCOc1c(Cl)cc2c(c1Cl)CCCN2c1cc2cn[nH]c2cn1` [HANT-164, 5,7-dichloro-6-(2-chloroethoxy)-1-(1H-pyrazolo[3,4-c]pyridin-5-yl)-1,2,3,4-tetrahydroquinoline], the IC50 was > 2000 nM.
Next, `N#Cc1cc2c(c(Cl)c1OCCCl)CCCC2NC(=O)c1cccc(Cl)c1` (centres unmarked) [HANT-233]: 1 to 500 nM.
Regarding `Oc1ccc(C2CCc3c2ccc(OCCCl)c3Cl)cc1` (centres unmarked) [HANT-108, 4-(4-chloro-5-(2-chloroethoxy)-2,3-dihydro-1H-inden-1-yl)phenol], the IC50 is 1 to 500 nM.
Consider `CCCOc1c(C#N)cc2c(c1Cl)CCCC2Nc1ccc(OC)nc1` (centres unmarked) [HANT-121], for which the IC50 was 1 to 500 nM.
With `CCCOc1c(C#N)cc2c(c1Cl)CCCC2c1cnc2[nH]ncc2c1` (centres unmarked) [HANT-196, 4-chloro-3-propoxy-8-(1H-pyrazolo[3,4-b]pyridin-5-yl)-5,6,7,8-tetrahydronaphthalene-2-carbo nitrile], the IC50 lay within 1 to 500 nM.
Turning to `N#Cc1cc2c(c(Cl)c1OCCCl)CCCC2Nc1cnc(N)nc1` (centres unmarked) [HANT-251], the IC50 fell in the range of 1 to 500 nM.
For the molecule `ClCCOc1c(Cl)cc2c(c1Cl)CCCN2c1ccc2[nH]ncc2n1` [HANT-165, 5,7-dichloro-6-(2-chloroethoxy)-1-(1H-pyrazolo[4,3-b]pyridin-5-yl)-1,2,3,4-tetrahydroquinoline], the IC50 was > 2000 nM.
With `Nc1n[nH]c2ccc(C3CCCc4c3cc(Cl)c(OCCCl)c4Cl)cc12` (centres unmarked) [HANT-133, 5-(5,7-dichloro-6-(2-chloroethoxy)-1,2,3,4-tetrahydronaphthalen-1-yl)-1H-indazol-3-amine], the IC50 is 1000 to 2000 nM.
In the case of `N#Cc1cc2c(c(Cl)c1OCCCl)CCCC2c1ccc2[nH]ncc2n1` (centres unmarked) [HANT-148, 4-chloro-3-(2-chloroethoxy)-8-(1H-pyrazolo[4,3-b]pyridin-5-yl)-5,6,7,8-tetrahydronaphthalene-2-carbonitrile], the IC50 was 500 to 1000 nM.
Turning to `N#Cc1cc2c(c(Cl)c1OCCCl)CCCC2c1ccc2[nH]ncc2c1` (centres unmarked) [HANT-144B, 4-chloro-3-(2-chloroethoxy)-8-(1H-indazol-5-yl)-5,6,7,8-tetrahydronaphthalene-2-carbonitrile], the concentration for half-maximal inhibition (IC50) was in the range of 1 to 500 nM.
Next, `N#Cc1cc2c(c(Cl)c1OCCCl)CCCC2Nc1cncc(F)c1` (centres unmarked) [HANT-254]: 1 to 500 nM; `CCOc1c(C#N)cc2c(c1Cl)CCCC2Nc1ccc2[nH]ncc2c1` (centres unmarked) [HANT-269, 8-((1H-indazol-5-yl)amino)-4-chloro-3-ethoxy-5,6,7,8-tetrahydronaphthalene-2-carbonitrile]: 1 to 500 nM.
Regarding `N#Cc1cc2c(c(Cl)c1OCCCl)CCCC2c1cnc2[nH]ncc2c1` (centres unmarked) [HANT-150A, 4-chloro-3-(2-chloroethoxy)-8-(1H-pyrazolo[3,4-b]pyridin-5-yl)-5,6,7,8-tetrahydronaphthalene-2-carbonitrile], the IC50 is 1 to 500 nM.
As for `N#Cc1cc2c(c(Cl)c1OCCCl)CCCC2Nc1ccc(N2CCOCC2)nc1` (centres unmarked) [HANT-170], the IC50 is 500 to 1000 nM.
As to `Cn1c(=O)[nH]c2ccc(C3CCCc4c3cc(Cl)c(OCCCl)c4Cl)cc21` (centres unmarked) [HANT-117], the IC50 fell in the range of 1000 to 2000 nM.

Broadly, the IC50 is the concentration needed to halve the response being measured.
